Structures can show the parent of a compound that is named as a salt.
What was measured:
human EP2 = human EP2 (Homo sapiens (Human), UniProt P43116); experiment: In vitro binding to human EP2 ([3H]-PGE2 displacement, membranes); settings: [3H]-PGE2, HEK293 membranes; n = 3; read-out: hEP2, Ki
Description: (§1) hEP1 and hEP4 membranes are prepared from recombinant HEK293 cells stably expressing the human EP1 (Genbank accession number AY275470) or EP4 (Genbank accession number AY429109) receptors. hEP2 and hEP3 membranes are prepared from HEK293 cells transiently transfected with EP2 (Genbank accession number AY275471) or EP3 (isoform VI: Genbank accession number AY429108) receptor plasmids. Frozen cell pellets are homogenized in homogenization buffer using a Teflon/glass homogenizer. Membrane protein is aliquoted and quick frozen on dry ice prior to storage at -80° C. Homogenization buffer contained 10 mM Tris-HCl, pH 7.4, 250 mM sucrose, 1 mM EDTA, 0.3 mM indomethacin and plus CompleteTM, with EDTA, obtained from Roche Molecular Biochemicals (Catalog Number 1 697 498). Kd values for [3H]-PGE2 binding to each receptor are determined by saturation binding studies or homologous competition. […] Nonspecific binding is calculated by comparing binding in the presence and absence of 2 μM of PGE2. The membranes are harvested by filtration (TomTek harvester), washed 4 times with cold buffer (10 mM MES pH 6.0 with KOH, 10 mM MgCl2), dried in a 60° C. oven, and the radioactivity is quantified as counts per minute (CPM) using a TopCount detector. Percent specific binding is calculated as the percent of the binding in the absence of any inhibitor, corrected for binding in the presence of 2 μM of PGE2.

human EP3 (isoform VI) = human EP3 (isoform VI) (Homo sapiens (Human), UniProt P43115); experiment: In vitro binding to human EP3 ([3H]-PGE2 displacement, membranes); settings: [3H]-PGE2, HEK293 membranes; read-out: hEP3, Ki
Description: as §1

human EP1 = human EP1 (Homo sapiens (Human), UniProt P34995); experiment: In vitro binding to human EP1 ([3H]-PGE2 displacement, membranes); settings: [3H]-PGE2, HEK293 membranes; read-out: hEP1, Ki
Description: as §1

rat EP4 = rat EP4 (Rattus norvegicus (Rat), UniProt P43114); experiment: In vitro rat EP4 functional antagonist activity (PGE2-stimulated cAMP, HTRF, HEK293); assay type: cell-based; settings: inhibition of PGE2 (EC80)-stimulated cAMP, read-out: IC50 measured at rat EP4
Chain of rat EP4 (P43114 whole entry): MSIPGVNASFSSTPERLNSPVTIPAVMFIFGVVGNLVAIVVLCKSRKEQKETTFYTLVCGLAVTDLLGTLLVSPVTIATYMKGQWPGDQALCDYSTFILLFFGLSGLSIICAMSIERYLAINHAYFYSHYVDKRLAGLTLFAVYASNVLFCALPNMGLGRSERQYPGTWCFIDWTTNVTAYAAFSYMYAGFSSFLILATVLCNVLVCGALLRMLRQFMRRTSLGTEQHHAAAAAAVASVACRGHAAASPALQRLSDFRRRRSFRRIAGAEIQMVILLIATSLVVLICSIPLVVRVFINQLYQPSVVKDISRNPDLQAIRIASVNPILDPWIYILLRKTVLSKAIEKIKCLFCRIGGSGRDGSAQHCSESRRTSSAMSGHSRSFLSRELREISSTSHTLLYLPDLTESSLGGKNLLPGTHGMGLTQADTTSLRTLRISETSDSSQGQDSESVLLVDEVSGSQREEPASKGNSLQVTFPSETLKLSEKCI
Description: Rat EP4 cDNA (Genebank Accession# NM—03276) is cloned into pcDNA 3.1 vector and subsequently transfected in HEK293 cells for receptor expression. Rat EP4 stable clone is scaled up and then frozen down as cell bank for future compounds screening. To test EP4 antagonist compounds in rEP4 cells, thaw the frozen cells and then resuspend cells in cAMP assay buffer. […] The cells are plated into 96-well half area flat-bottom polystyrene black plates (Costar 3694). […] Then diluted compounds are added into cAMP assay buffer which contains PGE2 (Cayman 14010, in a concentration predetermined to produce an EC80) at ratio of DMSO/buffer at 1/100. The cells are treated with compounds in the presence of PGE2 (EC80 concentration) for 30 minutes at room temperature. The cAMP levels generated from the cells are quantified by a cAMP HTRF assay kit (Cisbio 62AM4PEC). The plates are read on an EnVision plate reader using HTRF optimized protocol (PerkinElmer). IC50s are calculated using Graphpad Prism (v. 4) nonlinear regression, sigmoidal dose response curve fitting.

Chain of human EP1 (P34995 whole entry): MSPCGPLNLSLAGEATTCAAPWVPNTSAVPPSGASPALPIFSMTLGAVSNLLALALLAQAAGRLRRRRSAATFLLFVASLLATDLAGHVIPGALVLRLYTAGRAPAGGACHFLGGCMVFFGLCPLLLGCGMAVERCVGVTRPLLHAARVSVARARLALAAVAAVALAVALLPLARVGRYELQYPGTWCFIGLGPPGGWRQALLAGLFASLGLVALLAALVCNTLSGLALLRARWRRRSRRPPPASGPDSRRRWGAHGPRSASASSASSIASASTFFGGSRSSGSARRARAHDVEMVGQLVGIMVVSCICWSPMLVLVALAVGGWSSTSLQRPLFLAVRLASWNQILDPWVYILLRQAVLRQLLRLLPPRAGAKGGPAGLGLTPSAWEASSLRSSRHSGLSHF
Chain of human EP3 (isoform VI) (P43115 other isoform, or with tags, fused parts or gaps isoform P43115-4): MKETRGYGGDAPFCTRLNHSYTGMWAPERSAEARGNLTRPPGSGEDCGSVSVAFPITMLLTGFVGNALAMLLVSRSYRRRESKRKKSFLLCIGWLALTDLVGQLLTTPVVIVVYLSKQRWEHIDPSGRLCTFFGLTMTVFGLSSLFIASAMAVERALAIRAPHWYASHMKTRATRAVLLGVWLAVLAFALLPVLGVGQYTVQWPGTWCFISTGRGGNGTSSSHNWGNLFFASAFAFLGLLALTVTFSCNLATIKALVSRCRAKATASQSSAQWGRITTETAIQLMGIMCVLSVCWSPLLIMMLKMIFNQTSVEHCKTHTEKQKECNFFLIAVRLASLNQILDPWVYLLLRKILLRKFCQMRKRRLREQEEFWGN
Chain of human EP2 (P43116 whole entry, canonical isoform): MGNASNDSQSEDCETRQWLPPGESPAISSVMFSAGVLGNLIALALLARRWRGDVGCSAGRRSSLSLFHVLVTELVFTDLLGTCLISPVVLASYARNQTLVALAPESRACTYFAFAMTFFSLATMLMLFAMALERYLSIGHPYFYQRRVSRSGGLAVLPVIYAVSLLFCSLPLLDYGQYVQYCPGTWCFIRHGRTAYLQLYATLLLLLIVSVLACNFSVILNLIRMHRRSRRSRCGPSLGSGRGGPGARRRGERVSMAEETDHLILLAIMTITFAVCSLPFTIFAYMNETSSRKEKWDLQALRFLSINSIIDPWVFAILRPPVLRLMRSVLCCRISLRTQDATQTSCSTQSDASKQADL

Structure (SMILES): C[C@H](NC(=O)[C@H]1CCCCN1CCOc1ccccc1)c1ccc(C(=O)O)cc1 [Example 1, 4-[(1S)-1-[[(2R)-1-(2-phenoxyethyl)piperidine-2-carbonyl]amino]ethyl]benzoic acid hydrochloride]
- Ki (human EP2): 1550 ± 1860 nM
- Ki (human EP3 (isoform VI)): > 14 µM
- Ki (human EP1): > 17.5 µM
- IC50 (rat EP4): 15 nM

Reference: patent US8962659B2, “Phenoxyethyl piperidine compounds” (Eli Lilly and Company, priority 2012, dated 2015)
